Patent US20240270762A1, “PENICILLIN-BINDING PROTEIN INHIBITORS” (priority 2021, published 2024)
Converted amounts (≈) assume the structure as drawn.

Columns and labels:
[1] = target: T1, PBP3 from Pseudomonas aeruginosa (PAO1) (Pseudomonas aeruginosa, UniProt G3XD46); test: Bocillin-FL fluorescence polarization competition binding, P. aeruginosa PBP3; conditions: Binding affinity to P. aeruginosa PBP3; fluorescence polarization competition binding assay using Bocillin-FL; read-out: P. aeruginosa PBP3 Potency
T1 construct: made in house
T1 sequence (G3XD46 whole entry): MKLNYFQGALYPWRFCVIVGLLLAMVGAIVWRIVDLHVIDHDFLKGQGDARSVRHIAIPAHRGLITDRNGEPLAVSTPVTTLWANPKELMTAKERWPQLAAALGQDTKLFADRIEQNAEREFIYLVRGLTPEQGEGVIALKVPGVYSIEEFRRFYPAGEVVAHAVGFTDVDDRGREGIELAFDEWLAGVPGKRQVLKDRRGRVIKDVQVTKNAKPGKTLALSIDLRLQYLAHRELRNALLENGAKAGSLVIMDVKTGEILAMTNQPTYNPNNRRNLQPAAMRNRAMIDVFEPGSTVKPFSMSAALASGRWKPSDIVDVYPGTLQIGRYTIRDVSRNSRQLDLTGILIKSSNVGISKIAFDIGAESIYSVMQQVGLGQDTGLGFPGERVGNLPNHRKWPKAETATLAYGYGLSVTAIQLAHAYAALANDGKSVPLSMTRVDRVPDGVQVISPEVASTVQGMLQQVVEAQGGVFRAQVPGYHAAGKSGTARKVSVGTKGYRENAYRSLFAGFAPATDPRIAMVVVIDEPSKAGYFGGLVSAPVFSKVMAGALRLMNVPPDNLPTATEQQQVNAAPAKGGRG
How it was run: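 Purified PBPs pre-incubated with inhibitor (E. coli PBP3 1.5 μM, 30 min; P. aeruginosa PBP3 0.75 μM, A. baumannii PBP1a 1 μM and PBP3 0.2 μM, 15 min), then Bocillin-FL 0.1 μM (0.05 μM for PBP1a) added; FP read up to 60 min. EC50 = concentration halving bound Bocillin-FL.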

E. coli ATCC 25922 = test: microbe, parasite or virus in culture; assay type: cell-based; conditions: Escherichia coli, ATCC25922, read-out: MIC E. coli 25922
N. gonorrhoeae WHO Z = test: Liquid broth MIC in Fastidious broth; conditions: Neisseria gonorrhoeae, read-out: Minimum Inhibitory Concentration (MIC), N. gonorrhoeae WHO Z
K. pneumoniae UMM = test: microbe, parasite or virus in culture; assay type: cell-based; conditions: Klebsiella pneumoniae, read-out: MIC K. pneumoniae UMM
P. aeruginosa ATCC 27853 = test: microbe, parasite or virus in culture; assay type: cell-based; conditions: Pseudomonas aeruginosa, ATCC27853, read-out: MIC P. aeruginosa ATCC 27853
N. gonorrhoeae MS11 = test: Liquid broth MIC in Fastidious broth; conditions: Neisseria gonorrhoeae, MS11, read-out: Minimum Inhibitory Concentration (MIC), N. gonorrhoeae MS11
Method: Additional antibacterial testing of the series was performed in 8 reference strains of N. gonorrhoeae (ATCC 49226, FA1090, MS 11, WHO G, WHO L, WHO M, WHO K, WHO X, WHO Z, WHO Q, CDC-0197). ATCC 49226, FA1090, MS11, WHO G, WHO L, and WHO M produce wild type or wild-type like PBP2. WHO K, WHO X, WHO Z, WHO Q, and CDC-0197 produce mosaic PBP2. Liquid broth-based assays were used for antibacterial testing of PBP inhibitors in Neisseria gonorrhoeae. Briefly, cryo-preserved bacterial cultures of clinical strains were streaked for isolation on Chocolate Agar (72 g/L (2×) GC Agar Base (BD #228950) and 2% (2×) Hemoglobin was autoclaved at 121° C. for 20 minutes to sterilize. Once cooled to ˜50° C. the 2×GC Agar Base and 2× Hemoglobin solutions are combined and 1% IsoVitaleX Enrichment (BD #211876) was added to the solution). Strains were incubated at 36° C. and 5% CO2 to allow growth of colonies, 24 hours before inoculum preparation. 2-fold serial dilutions of test compounds were conducted in a 96 well plate with a final volume of 75 μL per well at 2-fold the final desired concentration in Fastidious broth (Remel #R07664). For preparation of assay inoculum, a direct suspension was prepared by aseptically swabbing 10-15 colonies from agar plates into culture tubes containing 2 mL of fresh sterile saline. After the dilution plates were set up, direct suspensions were then diluted in a cuvette containing sterile saline and the optical density was measured at 600 nm. Inocula were diluted such that 75 μL of this culture in Fastidious broth results in a starting bacterial concentration of 5×10^5 CFU/mL when added to the dilution plates. The plates were incubated for ˜24 hours at 36° C. and 5% CO2.

N. gonorrhoeae WHO Q = test: Liquid broth MIC in Fastidious broth; conditions: Neisseria gonorrhoeae, read-out: Minimum Inhibitory Concentration (MIC), N. gonorrhoeae WHO Q

SMILES | IC50 [1] | MIC (E. coli ATCC 25922) | MIC (N. gonorrhoeae WHO Z) | MIC (K. pneumoniae UMM) | MIC (P. aeruginosa ATCC 27853) | MIC (N. gonorrhoeae MS11) | MIC (N. gonorrhoeae WHO Q)
Nc1ncc(C(=O)N[C@@H](C(=O)N[C@H]2Cc3cccc(C(=O)O)c3OB2O)c2ccc(P(=O)(O)O)cc2)s1 (racemic) [Example 50, (R)-3-((S)-2-(2-aminothiazole-5-carboxamido)-2-(4-phosphonophenyl)acetamido)-2-hydroxy-3,4-dihydro-2H-benzo[e][1,2]oxaborinine-8-carboxylic acid and (R)-3-((R)-2-(2-aminothiazole-5-carboxamido)-2-(4-phosphonophenyl)acetamido)-2-hydroxy-3,4-dihydro-2H-benzo[e][1,2]oxaborinine-8-carboxylic acid] | < 10 µM | > 128 µg/mL | 16 to 32 µg/mL (≈ 29.3 to 58.6 µM) | > 128 µg/mL | > 128 µg/mL | 4 to 8 µg/mL (≈ 7.32 to 14.6 µM) | 16 to 32 µg/mL (≈ 29.3 to 58.6 µM)
Nc1nc(C(=O)N[C@@H](C(=O)N[C@H]2Cc3cccc(C(=O)O)c3OB2O)c2ccc(P(=O)(O)O)cc2)cs1 (racemic) [Example 51, (R)-3-((S)-2-(2-aminothiazole-4-carboxamido)-2-(4-phosphonophenyl)acetamido)-2-hydroxy-3,4-dihydro-2H-benzo[e][1,2]oxaborinine-8-carboxylic acid and (R)-3-((R)-2-(2-aminothiazole-4-carboxamido)-2-(4-phosphonophenyl)acetamido)-2-hydroxy-3,4-dihydro-2H-benzo[e][1,2]oxaborinine-8-carboxylic acid] | < 10 µM | > 128 µg/mL | 1 to 2 µg/mL (≈ 1.83 to 3.66 µM) | 32 to 64 µg/mL (≈ 58.6 to 117 µM) | > 128 µg/mL | < 1 µg/mL | 1 to 2 µg/mL (≈ 1.83 to 3.66 µM)
CN1CCC[C@@H]1C(=O)N[C@@H](C(=O)N[C@H]1Cc2cccc(C(=O)O)c2OB1O)c1ccc(P(=O)(O)O)cc1 (racemic) [Example 54, (R)-2-hydroxy-3-((S)-2-((R)-1-methylpyrrolidine-2-carboxamido)-2-(4-phosphonophenyl)acetamido)-3,4-dihydro-2H-benzo[e][1,2]oxaborinine-8-carboxylic acid and (R)-2-hydroxy-3-((R)-2-((R)-1-methylpyrrolidine-2-carboxamido)-2-(4-phosphonophenyl)acetamido)-3,4-dihydro-2H-benzo[e][1,2]oxaborinine-8-carboxylic acid] | 50 to 250 µM | > 128 µg/mL | 16 to 32 µg/mL (≈ 30.1 to 60.2 µM) | > 128 µg/mL | > 128 µg/mL | 16 to 32 µg/mL (≈ 30.1 to 60.2 µM) | 16 to 32 µg/mL (≈ 30.1 to 60.2 µM)
CCN1CCN(C(=O)N[C@@H](C(=O)N[C@H]2Cc3cccc(C(=O)O)c3OB2O)c2ccc(P(=O)(O)O)c(F)c2)C(=O)C1=O (single isomer, unassigned) [Example 7] | – | 32 to 64 µg/mL (≈ 52.8 to 106 µM) | < 1 µg/mL | 32 to 64 µg/mL (≈ 52.8 to 106 µM) | 32 to 64 µg/mL (≈ 52.8 to 106 µM) | < 1 µg/mL | < 1 µg/mL
CCN1CCN(C(=O)N[C@H](C(=O)N[C@H]2Cc3ccc(F)c(C(=O)O)c3OB2O)c2ccc(P(=O)(O)O)cc2)C(=O)C1=O (single isomer, unassigned) [Example 9] | 10 to 50 µM | > 128 µg/mL | < 1 µg/mL | > 128 µg/mL | > 128 µg/mL | 1 to 2 µg/mL (≈ 1.65 to 3.3 µM) | 1 to 2 µg/mL (≈ 1.65 to 3.3 µM)
CCN1CCN(C(=O)N[C@@H](C(=O)N[C@H]2Cc3ccc(F)c(C(=O)O)c3OB2O)c2ccc(P(=O)(O)O)cc2)C(=O)C1=O (single isomer, unassigned) [Example 10] | < 10 µM | > 128 µg/mL | < 1 µg/mL | > 128 µg/mL | 32 to 64 µg/mL (≈ 52.8 to 106 µM) | < 1 µg/mL | < 1 µg/mL
CS(=O)(=O)N1CCN(C(=O)N[C@@H](C(=O)N[C@H]2Cc3cccc(C(=O)O)c3OB2O)c2ccc(P(=O)(O)O)c(F)c2F)C1=O (single isomer, unassigned) [Example 13] | < 10 µM | > 128 µg/mL | < 1 µg/mL | > 128 µg/mL | > 128 µg/mL | < 1 µg/mL | < 1 µg/mL
CS(=O)(=O)N1CCN(C(=O)N[C@@H](C(=O)N[C@H]2Cc3cccc(C(=O)O)c3OB2O)c2ccc(P(=O)(O)O)c(F)c2)C1=O (single isomer, unassigned) [Example 15] | < 10 µM | 32 to 64 µg/mL (≈ 50.9 to 102 µM) | < 1 µg/mL | > 128 µg/mL | > 128 µg/mL | < 1 µg/mL | < 1 µg/mL
CS(=O)(=O)N1CCN(C(=O)N[C@@H](C(=O)N[C@H]2Cc3cccc(C(=O)O)c3OB2O)c2cc(F)c(P(=O)(O)O)c(F)c2)C1=O (single isomer, unassigned) [Example 18] | < 10 µM | 32 to 64 µg/mL (≈ 49.5 to 99 µM) | < 1 µg/mL | 32 to 64 µg/mL (≈ 49.5 to 99 µM) | > 128 µg/mL | < 1 µg/mL | < 1 µg/mL
CS(=O)(=O)N1CCN(C(=O)N[C@@H](C(=O)N[C@H]2Cc3ccc(F)c(C(=O)O)c3OB2O)c2ccc(P(=O)(O)O)c(F)c2)C1=O (single isomer, unassigned) [Example 19] | < 10 µM | > 128 µg/mL | < 1 µg/mL | > 128 µg/mL | > 128 µg/mL | < 1 µg/mL | < 1 µg/mL
CCN1CCN(C(=O)N[C@@H](C(=O)N[C@H]2Cc3cccc(C(=O)O)c3OB2O)c2ccc(P(C)(=O)O)cc2)C(=O)C1=O (single isomer, unassigned) [Example 47] | < 10 µM | 8 to 16 µg/mL (≈ 13.6 to 27.3 µM) | 1 to 2 µg/mL (≈ 1.71 to 3.41 µM) | > 128 µg/mL | > 128 µg/mL | < 1 µg/mL | 1 to 2 µg/mL (≈ 1.71 to 3.41 µM)
N[C@@H](C(=O)N[C@H]1Cc2cccc(C(=O)O)c2OB1O)c1ccc(P(=O)(O)O)cc1 (single isomer, unassigned) [Example 171] | > 250 µM | > 128 µg/mL | > 64 µg/mL | > 128 µg/mL | > 128 µg/mL | > 64 µg/mL | > 64 µg/mL
O=C(O)c1cccc2c1OB(O)[C@@H](NC(=O)[C@@H](NC(=O)c1ccn[nH]c1=O)c1ccc(P(=O)(O)O)cc1)C2 (single isomer, unassigned) [Example 177] | < 10 µM | > 128 µg/mL | 4 to 8 µg/mL (≈ 7.38 to 14.8 µM) | > 128 µg/mL | > 128 µg/mL | 1 to 2 µg/mL (≈ 1.84 to 3.69 µM) | 4 to 8 µg/mL (≈ 7.38 to 14.8 µM)
O=C(O)c1c(F)ccc2c1OB(O)[C@@H](NC(=O)C(NC(=O)N1CCN(Cc3ccc(O)c(O)c3Cl)C(=O)C1=O)c1ccc(P(=O)(O)O)c(F)c1)C2 (stereo partly drawn) [Example 23, (3R)-3-(2-(4-(2-chloro-3,4-dihydroxybenzyl)-2,3-dioxopiperazine-1-carboxamido)-2-(3-fluoro-4-phosphonophenyl)acetamido)-7-fluoro-2-hydroxy-3,4-dihydro-2H-benzo[e][1,2]oxaborinine-8-carboxylic acid] | < 10 µM | – | < 1 µg/mL | – | – | < 1 µg/mL | < 1 µg/mL
O=C(O)c1cccc2c1OB(O)[C@@H](NC(=O)C(NC(=O)N1CCN(Cc3ccc(O)c(O)c3Cl)C(=O)C1=O)c1ccc(P(=O)(O)O)cc1)C2 (stereo partly drawn) [Example 24, (3R)-3-(2-(4-(2-chloro-3,4-dihydroxybenzyl)-2,3-dioxopiperazine-1-carboxamido)-2-(4-phosphonophenyl)acetamido)-2-hydroxy-3,4-dihydro-2H-benzo[e][1,2]oxaborinine-8-carboxylic acid] | < 10 µM | – | 1 to 2 µg/mL (≈ 1.4 to 2.79 µM) | – | – | < 1 µg/mL | 1 to 2 µg/mL (≈ 1.4 to 2.79 µM)
O=C(O)c1c(F)ccc2c1OB(O)[C@@H](NC(=O)C(NC(=O)N1CCN(Cc3cc(F)c(O)c(O)c3Cl)C(=O)C1=O)c1ccc(P(=O)(O)O)cc1)C2 (stereo partly drawn) [Example 45, (3R)-3-(2-(4-(2-chloro-5-fluoro-3,4-dihydroxybenzyl)-2,3-dioxopiperazine-1-carboxamido)-2-(4-phosphonophenyl)acetamido)-7-fluoro-2-hydroxy-3,4-dihydro-2H-benzo[e][1,2]oxaborinine-8-carboxylic acid] | < 10 µM | – | 1 to 2 µg/mL (≈ 1.33 to 2.66 µM) | – | – | < 1 µg/mL | 1 to 2 µg/mL (≈ 1.33 to 2.66 µM)
O=C(O)c1c(F)ccc2c1OB(O)[C@@H](NC(=O)C(NC(=O)N1CCN(Cc3ccc(O)c(O)c3Cl)C1=O)c1ccc(P(=O)(O)O)cc1)C2 (stereo partly drawn) [Example 46, (3R)-3-(2-(3-(2-chloro-3,4-dihydroxybenzyl)-2-oxoimidazolidine-1-carboxamido)-2-(4-phosphonophenyl)acetamido)-7-fluoro-2-hydroxy-3,4-dihydro-2H-benzo[e][1,2]oxaborinine-8-carboxylic acid] | < 10 µM | – | < 1 µg/mL | – | – | < 1 µg/mL | < 1 µg/mL
O=C(N[C@@H](C(=O)N[C@H]1Cc2cccc(C(=O)O)c2OB1O)c1ccc(P(=O)(O)O)cc1)c1ccc(O)c(O)c1Cl [Example 49, (R)-3-((R)-2-(2-chloro-3,4-dihydroxybenzamido)-2-(4-phosphonophenyl)acetamido)-2-hydroxy-3,4-dihydro-2H-benzo[e][1,2]oxaborinine-8-carboxylic acid] | > 250 µM | – | – | – | – | – | –
O=C(NCCN1CCN(C(=O)NC(C(=O)N[C@H]2Cc3ccc(F)c(C(=O)O)c3OB2O)c2ccc(P(=O)(O)O)cc2)C(=O)C1=O)c1ccc(O)c(O)c1Cl (stereo partly drawn) [Example 120, (3R)-3-(2-(4-(2-(2-chloro-3,4-dihydroxybenzamido)ethyl)-2,3-dioxopiperazine-1-carboxamido)-2-(4-phosphonophenyl)acetamido)-7-fluoro-2-hydroxy-3,4-dihydro-2H-benzo[e][1,2]oxaborinine-8-carboxylic acid] | < 10 µM | – | – | – | – | – | –
